According to patent publication US8076352B2, “Administration of carboline derivatives useful in the treatment of cancer and other diseases” (PTC Therapeutics, Inc., priority 2004, dated 2011):

Test system: hypoxia-inducible endogenous VEGF expression in HeLa cells
Experiment: Hypoxia-inducible endogenous VEGF expression, VEGF ELISA of conditioned media (dose-response EC50)
Assay type: cell-based
Settings: HeLa cells under hypoxic conditions
In short: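 Secreted VEGF was quantified by ELISA against a per-assay standard curve after HeLa cells spent 24-48 h in 1% O2, 5% CO2, N2 balance with or without compound. Across a series of, e.g., seven concentrations, percentage inhibition (max 100%, min 0%) gave EC50 and CC50 values.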

Compound	EC50 [nM]
COCCOc1ccc(C2c3[nH]c4ccc(Cl)cc4c3CCN2C(=O)Oc2ccc(F)cc2)cc1 (stereo not drawn) [Compound 388]	< 8
O=[N+](O)c1ccc(C2NCCc3c2[nH]c2ccc(Br)cc32)cc1 (stereo not drawn) [Compound 153]	40 to 200

Same assay, conditions: HeLa cells, hypoxic conditions (1% O2)

Compound	EC50 [nM]
O=C(Oc1ccc(F)cc1)N1CCc2c([nH]c3ccc(Br)cc23)C1c1ccc(C(F)(F)F)cc1 (stereo not drawn) [Compound 426]	< 8
CN(C)CCCOc1ccc(C2c3[nH]c4ccc(Cl)cc4c3CCN2C(=O)Oc2ccc(Cl)cc2)cc1 (stereo not drawn) [Compound 479]	40 to 200

Same assay, conditions: Homo sapiens, HeLa cells under hypoxic conditions

Compound	EC50 [nM]
CC(C)OC(=O)N1CCc2c([nH]c3ccc(Cl)cc23)C1c1ccccc1F (stereo not drawn) [Compound 105]	8 to 40
COc1ccc(C2NCCc3c2[nH]c2ccc(Br)cc32)cc1O (stereo not drawn) [Compound 379]	> 1000
Clc1ccc2[nH]c3c(c2c1)CCN(Cc1ccoc1)C3c1ccco1 (stereo not drawn) [Compound 268]	> 1000
CCOC(=O)N1CCc2c([nH]c3ccc(F)cc23)C1c1cccc(Cl)c1 (stereo not drawn) [Compound 284]	> 1000
COc1ccc(C2c3[nH]c4ccc(Br)cc4c3CCN2O)cc1 (stereo not drawn) [Compound 110]	8 to 40
CC(=O)N1CCc2c([nH]c3ccc(Br)cc23)C1c1ccc(Br)cc1 (stereo not drawn) [Compound 129]	40 to 200
CC(=O)N1CCc2c([nH]c3ccc(Cl)cc23)C1c1ccc(OCc2ccccc2)cc1 (stereo not drawn) [Compound 184]	200 to 1000
Clc1ccc2[nH]c3c(c2c1)CCNC3c1cc(Br)cc(Br)c1 (stereo not drawn) [Compound 223]	200 to 1000
Cc1ccc(C2NCCc3c2[nH]c2ccc(Br)cc32)cc1 (stereo not drawn) [Compound 156]	40 to 200
Cc1ccc(C2c3[nH]c4ccc(Cl)cc4c3CCN2C(=O)Oc2ccc(Cl)cc2)cc1 (stereo not drawn) [Compound 347]	< 8
CCOC(=O)N1CCc2c([nH]c3ccc(Cl)cc23)C1c1ccccc1F (stereo not drawn) [Compound 106]	8 to 40
Oc1ccc(Br)cc1C1NCCc2c1[nH]c1ccc(Br)cc21 (stereo not drawn) [Compound 382]	> 1000
Clc1ccc2[nH]c3c(c2c1)CCNC3Cc1ccccc1 (stereo not drawn) [Compound 251]	> 1000
CS(=O)(=O)c1ccc(C2c3[nH]c4ccc(Cl)cc4c3CCN2C(=O)N2CCOCC2)cc1 (stereo not drawn) [Compound 309]	8 to 40
N#Cc1ccc(C2NCCc3c2[nH]c2ccc(Cl)cc32)cc1 (stereo not drawn) [Compound 220]	200 to 1000
COCCNC(=S)N1CCc2c([nH]c3ccccc23)C1c1ccc(OC)cc1 (stereo not drawn) [Compound 290]	> 1000
c1ccc(COc2ccc3[nH]c4c(c3c2)CCNC4c2ccccc2)cc1 (stereo not drawn) [Compound 303]	> 1000
CCOC(=O)N1CCc2c([nH]c3ccc(Cl)cc23)C1c1cccc(C)c1 (stereo not drawn) [Compound 109]	8 to 40
COc1ccc(C2c3[nH]c4ccc(Cl)cc4c3CCN2C(=O)Nc2ccccc2)cc1 (stereo not drawn) [Compound 167]	40 to 200
CCN(CC)C(=O)N1CCc2c([nH]c3ccc(Cl)cc23)C1c1ccc(OC)cc1 (stereo not drawn) [Compound 339]	> 1000
COc1ccc(C2c3[nH]c4ccc(Cl)cc4c3CCN2C(=O)O[C@H]2C[C@@H](C)CC[C@@H]2C(C)C)cc1 (stereo partly drawn) [Compound 192]	200 to 1000
COc1ccc(C2c3[nH]c4ccc(C)cc4c3CCN2C(=O)Oc2ccc(Cl)cc2)cc1 (stereo not drawn) [Compound 341]	40 to 200
CCOC(=O)N1CCc2c([nH]c3ccc(Cl)cc23)C1c1ccc(Cl)cc1 (stereo not drawn) [Compound 11]	< 8
COc1ccc(C2c3[nH]c4ccc(Cl)cc4c3CCN2C(=O)NC2CCCCC2)cc1 (stereo not drawn) [Compound 147]	40 to 200

Compound	EC50 [nM]
Clc1ccc2[nH]c3c(c2c1)CCN(Cc1ccccc1)C3c1ccc2c(c1)OCO2 (stereo not drawn) [Compound 176]	200 to 1000
O=C(OCCCl)N1CCc2c([nH]c3ccc(Cl)cc23)C1c1cccc(Br)c1 (stereo not drawn) [Compound 99]	8 to 40
CCCOC(=O)N1CCc2c([nH]c3ccc(Cl)cc23)C1c1ccc(Cl)cc1 (stereo not drawn) [Compound 49]	8 to 40
CCOC(=O)N1CCc2c([nH]c3ccc(Cl)cc23)C1c1ccc(Br)cc1 (stereo not drawn) [Compound 54]	8 to 40
COc1ccc(C2c3[nH]c4ccc(Cl)cc4c3CCN2C(=O)NC(C)C)cc1 (stereo not drawn) [Compound 177]	200 to 1000
COc1ccc(C2c3[nH]c4ccccc4c3CCN2C(=O)Nc2ccc(C(C)C)cc2)cc1 (stereo not drawn) [Compound 304]	> 1000
CCCOC(=O)N1CCc2c([nH]c3ccc(Cl)cc23)C1c1ccc(C(F)(F)F)cc1 (stereo not drawn) [Compound 19]	< 8
CCOC(=O)N1CCc2c([nH]c3ccc(Br)cc23)C1c1ccc(Br)cc1 (stereo not drawn) [Compound 3]	< 8
CC(=O)N1CCc2c([nH]c3ccc(Br)cc23)C1c1cccc(C(F)(F)F)c1 (stereo not drawn) [Compound 80]	8 to 40
CC(=O)Nc1ccc(C2NCCc3c2[nH]c2ccc(Cl)cc32)cc1 (stereo not drawn) [Compound 294]	> 1000
Clc1ccc2[nH]c3c(c2c1)CCN(Cc1ccccc1)C3c1c[nH]c2ccc(Br)cc12 (stereo not drawn) [Compound 273]	> 1000
O=C(OCCCl)N1CCc2c([nH]c3ccc(Cl)cc23)C1c1ccccc1 (stereo not drawn) [Compound 114]	8 to 40
COc1ccc(C2c3[nH]c4ccc(Br)cc4c3CCN2C(C)=O)cc1 (stereo not drawn) [Compound 130]	40 to 200
CCOC(=O)N1CCc2c([nH]c3ccc(Cl)cc23)C1c1ccc(S(C)(=O)=O)cc1 (stereo not drawn) [Compound 358]	40 to 200
CCOC(=O)N1CCc2c([nH]c3ccc(Cl)cc23)C1c1cc(=O)c2ccccc2o1 (stereo not drawn) [Compound 126]	40 to 200
CCCOC(=O)N1CCc2c([nH]c3ccc(Cl)cc23)C1c1ccc(OCCOC)cc1 (stereo not drawn) [Compound 392]	< 8
Clc1ccc2[nH]c3c(c2c1)CCNC3c1cccc(Br)c1 (stereo not drawn) [Compound 200]	200 to 1000
COC(=O)N1CCc2c([nH]c3ccc(Cl)cc23)C1c1ccc(OCCCn2ccnc2)cc1 (stereo not drawn) [Compound 386]	< 8
Clc1ccc2[nH]c3c(c2c1)CCNC3c1ccccc1Cl (stereo not drawn) [Compound 197]	200 to 1000
CS(=O)(=O)c1ccc(C2c3[nH]c4ccc(Cl)cc4c3CCN2C(=O)Oc2ccc(Cl)cc2)cc1 (stereo not drawn) [Compound 360]	8 to 40
COC(=O)N1CCc2c([nH]c3ccc(Cl)cc23)C1c1ccc(F)cc1 (stereo not drawn) [Compound 68]	8 to 40
COCCOCC(=O)N1CCc2c([nH]c3ccc(Br)cc23)C1c1ccc(C)cc1 (stereo not drawn) [Compound 258]	> 1000
COc1ccc(C2c3[nH]c4ccc(Cl)cc4c3CCN2C(=O)C(C)Oc2ccccc2)cc1 (stereo not drawn) [Compound 375]	200 to 1000
CCOC(=O)N1CCc2c([nH]c3ccc(Cl)cc23)C1c1ccc(-n2ccnc2)cc1 (stereo not drawn) [Compound 180]	200 to 1000

Same assay, conditions: Homo sapiens, HeLa cells, hypoxic conditions (1% O2)

Compound	EC50 [nM]
COCCOc1ccc(C2c3[nH]c4ccc(Cl)cc4c3CCN2C(=O)Oc2ccc(OC)cc2)cc1 (stereo not drawn) [Compound 465]	8 to 40
CCOC(=O)N1CCc2c([nH]c3ccc(Br)cc23)C1c1ccc(CN2CCN(C)CC2)cc1 (stereo not drawn) [Compound 474]	40 to 200
CCOC(=O)N1CCc2c([nH]c3ccc(Cl)cc23)C1c1ccc(C(=O)N2CCCN(C)CC2)cc1 (stereo not drawn) [Compound 514]	40 to 200
CCOC(=O)N1CCc2c([nH]c3ccc(Cl)cc23)C1c1ccc(C(=O)N2CCC(NC(C)=O)C2)cc1 (stereo not drawn) [Compound 561]	> 1000
COc1ccc(C2c3[nH]c4ccc(Cl)cc4c3CCN2C(=O)Oc2ccc(F)cc2)cc1 (stereo not drawn) [Compound 401]	< 8
C=CCOc1ccc(C2c3[nH]c4ccc(Cl)cc4c3CCN2C(=O)OCCC)cc1 (stereo not drawn) [Compound 406]	< 8
O=C(Oc1ccccc1Cl)N1CCc2c([nH]c3ccc(Cl)cc23)C1c1ccc(F)cc1 (stereo not drawn) [Compound 588]	40 to 200
CC(C)NCCCCOc1ccc(C2c3[nH]c4ccc(Cl)cc4c3CCN2C(=O)Oc2ccc(Cl)cc2)cc1 (stereo not drawn) [Compound 700]	8 to 40
CCOC(=O)N1CCc2c([nH]c3ccc(Cl)cc23)C1CC(C)C (stereo not drawn) [Compound 472]	8 to 40
COC(=O)c1ccc(C2c3[nH]c4ccc(Br)cc4c3CCN2C(=O)Oc2ccccc2Cl)cc1 (stereo not drawn) [Compound 593]	8 to 40
O=C(Oc1ccc(Cl)cc1)N1CCc2c([nH]c3ccc(Cl)cc23)C1c1ccc(OCCCCn2cncn2)cc1 (stereo not drawn) [Compound 706]	< 8
O=C(Oc1ccc(Cl)cc1)N1CCc2c([nH]c3ccc(Cl)cc23)C1c1ccc(OCCCI)cc1 (stereo not drawn) [Compound 617]	8 to 40
O=C(Oc1ccc(F)cc1)N1CCc2c([nH]c3ccc(Cl)cc23)C1c1ccc(OCCCCCCN2CCCC2)cc1 (stereo not drawn) [Compound 773]	< 8
C=CCOc1ccc(C2c3[nH]c4ccc(Cl)cc4c3CCN2C(=O)OCC(C)C)cc1 (stereo not drawn) [Compound 414]	< 8
O=C(Oc1ccc(Cl)cc1)N1CCc2c([nH]c3ccc(Cl)cc23)C1c1ccc(OCCCCn2ccnc2)cc1 (stereo not drawn) [Compound 705]	8 to 40
COc1ccc(C2c3[nH]c4ccc(Cl)cc4c3CCN2C(=O)c2ccc(-c3ccccc3)cc2)cc1 (stereo not drawn) [Compound 464]	8 to 40
CCOC(=O)N1CCc2c([nH]c3ccc(Cl)cc23)C1c1ccc(C(=O)N(C)CCc2ccccn2)cc1 (stereo not drawn) [Compound 518]	200 to 1000
CCOC(=O)N1CCc2c([nH]c3ccc(Br)cc23)C1c1ccc(C(=O)N2CCN(CCCN(C)C)CC2)cc1 (stereo not drawn) [Compound 560]	> 1000
CCCCCCC1c2[nH]c3ccc(Cl)cc3c2CCN1C(=O)OCC (stereo not drawn) [Compound 515]	200 to 1000
CCOC(=O)N1CCc2c([nH]c3ccc(Cl)cc23)C1c1ccc(C(=O)NCCC2CCCN2C)cc1 (stereo not drawn) [Compound 521]	200 to 1000

Same assay, conditions: Homo sapiens, HeLa cells, hypoxic conditions (1% O2, 5% CO2)

Compound	EC50 [nM]
O=C(Oc1ccccc1Cl)N1CCc2c([nH]c3ccc(Cl)cc23)C1c1ccc(OCCCn2ccnc2)cc1 (stereo not drawn) [Compound 934]	< 8
COC(=O)NCC(O)COc1ccc(C2c3[nH]c4ccc(Cl)cc4c3CCN2C(=O)Oc2ccc(Cl)cc2)cc1 (stereo not drawn) [Compound 848]	< 8
CN1CCCC(COc2ccc(C3c4[nH]c5ccc(Cl)cc5c4CCN3C(=O)Oc3ccc(F)cc3)cc2)C1 (stereo not drawn) [Compound 932]	< 8
CC(=O)N1CCN(CCCOc2ccc(C3c4[nH]c5ccc(Cl)cc5c4CCN3C(=O)Oc3ccc(F)cc3)cc2)CC1 (stereo not drawn) [Compound 988]	< 8
O=C(Oc1ccc(Cl)cc1)N1CCc2c([nH]c3ccc(Cl)cc23)C1c1ccc(N2CCCC2)cc1 (stereo not drawn) [Compound 984]	200 to 1000
O=C(Oc1ccccc1Cl)N1CCc2c([nH]c3ccc(Cl)cc23)C1c1ccc(OCCCn2cncn2)cc1 (stereo not drawn) [Compound 926]	< 8
